These are literature values, as cited in paper PMC12979414, “Ascending single-dose study of the safety, pharmacokinetics, and pharmacodynamics of CSTI-500, a novel monoamine triple reuptake inhibitor, first-in-human” (Psychopharmacology, 2025).

Where two headings read alike, the source gives them in different places.

Details of series [1]: method as in Zheng et al. [2015]. The conditions noted are these: multiple-ascending-dose study, healthy subjects; ref Zheng et al. [2015].
Details of series [2]: method as in Deest et al. [2021]. The settings on record: PWS patients, 6 months, doses as low as 25 mg; ref Deest et al. [2021].
For series [3] the following is noted: clinical trials for Parkinson's disease; ref Astrup et al. [2008].
The mark [4] stands for this setting: PET occupancy study in healthy subjects, ref Learned et al. [2012].

`CN1Cc2cc(-c3ccc(N)nn3)ccc2[C@H](c2ccc3ccccc3c2)C1` [BMS-820836]: the “striatal DAT occupancies” value in the series on DAT (0.5-2 mg/d, healthy volunteers, ref Zheng et al. [2015]) is reported as 14-30%. For the same molecule, the heart rate entry in series [1] is given as “linear dose-related escalation in heart rate”. In addition, the clinical efficacy entry (0.25-2 mg/d, treatment-resistant MDD, two phase IIb trials, ref Bhagwagar et al. [2015]) was “no clinical superiority compared to duloxetine or escitalopram treatment”. Further, the SERT occupancy result in the series with SERT (0.5 mg/d, near steady-state, healthy subjects, ref Zheng et al. [2015]) is reported as “about 80%”.

In the case of `COC[C@@H]1[C@@H](c2ccc(Cl)c(Cl)c2)C[C@@H]2CC[C@H]1N2` [GSK372475], the DAT occupancy in the series with DAT (setting [4]) is 60-80%. The efficacy and tolerability entry (1-2 mg/d, two 10-week phase II trials in MDD patients, ref Learned et al. [2012]) is “neither efficacious nor well-tolerated”. The SERT occupancy in the series with SERT (setting [4]) was 55-75%.

Turning to `N[C@@H]1CC[C@@H](c2ccc(Cl)c(Cl)c2)c2ccccc21` [SEP-225289], in the series with DAT (single-doses 8-16 mg, healthy volunteers, ref DeLorenzo et al. [2011]), the “DAT occupancies, average values” is reported as 33-49%. Further, where the note is “phase II study in MDD patients, 8 weeks of treatment, ref Sharma et al. [2015]”, the depression symptoms entry was “no reduction of depression symptoms”. Also, in the series on SERT (single-doses 8-16 mg, healthy volunteers, all doses, ref DeLorenzo et al. [2011]), the SERT occupancy entry was “below 20%”.

In the case of `CN[C@H]1CC[C@@H](c2ccc(Cl)c(Cl)c2)c2ccccc21` [sertraline], the temper outbursts entry in series [2] is on record as “significantly reduced the temper outbursts”.

Take `CCOC[C@@H]1[C@@H](c2ccc(Cl)c(Cl)c2)C[C@@H]2CC[C@H]1N2C` [tesofensine]: the “weight loss as an AE” value in series [3] is recorded as “significant weight loss”.
